Reference: paper PMC11111408, “Concurrent inhibition of oncogenic and wild-type RAS-GTP for cancer therapy” (Nature, 2024)

System: PRISM DNA-barcoded human tumour cell lines
Assay: PRISM pooled cell viability assay;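 as to Area under the curve (AUC): 8 threefold dilutions from 10 µM with 5 days of exposure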;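 as to PRISM AUC: 8 threefold dilutions from 10 µM with 5 days of exposure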
Type: cell-based
Parameters: Area under the curve (AUC): scale not given here; AUC (PRISM viability) / AUC (PRISM): unit not given beside the values
Conditions: for AUC (PRISM): BRAF class I; for PRISM AUC: KRAS MUT; for AUC (PRISM viability): WT
Experimental: Cells were then lysed in TCL mRNA lysis buffer, and then PCR with reverse transcription was performed. Detection of the barcodes and univariate and multivariate analysis was then performed as previously described. Data analysis is described in the Supplementary Methods. Up-to-date code for our analysis is at the github link: https://github.com/cmap/dockerized_mts.
For every gene with non-silent mutations in at least four cell-lines, we compared the AUC values between cells with and without those mutations using a t-test. This analysis was carried out for: (i) the full dataset; (ii) excluding cell lines with non-silent KRAS mutations; and (iii) excluding cell lines that have either KRAS or NRAS non-silent mutations.

[1] = DND41_HAEMATOPOIETIC_AND_LYMPHOID_TISSUE

CCn1c(-c2cc(N3CCN(C4CC4)CC3)cnc2[C@H](C)OC)c2c3cc(ccc31)-c1csc(n1)C[C@H](NC(=O)[C@H]1[C@@H]3COC[C@@H]31)C(=O)N1CCC[C@H](N1)C(=O)OCC(C)(C)C2 [RMC-7977]
Area under the curve (AUC) (42MGBA_CENTRAL_NERVOUS_SYSTEM): 0.8215
Area under the curve (AUC) (253JBV_URINARY_TRACT): 0.7547
Area under the curve (AUC) (639V_URINARY_TRACT): 0.5786
Area under the curve (AUC) (647V_URINARY_TRACT): 0.793
Area under the curve (AUC) (697_HAEMATOPOIETIC_AND_LYMPHOID_TISSUE): 0.7402
Area under the curve (AUC) (769P_KIDNEY): 0.9025
Area under the curve (AUC) (786O_KIDNEY): 0.9593
Area under the curve (AUC) (5637_URINARY_TRACT): 0.5198
Area under the curve (AUC) (8305C_THYROID): 0.8425
AUC (PRISM) (A101D_SKIN): 0.8318
AUC (PRISM) (A375_SKIN): 0.8721
PRISM AUC (A549_LUNG): 0.4422
AUC (PRISM) (A1207_CENTRAL_NERVOUS_SYSTEM): 0.9848
AUC (PRISM) (A2058_SKIN): 0.6601
PRISM AUC (AGS_STOMACH): 0.2114
PRISM AUC (ASPC1_PANCREAS): 0.2372
PRISM AUC (CAL62_THYROID): 0.7922
PRISM AUC (CALU1_LUNG): 0.3345
Area under the curve (AUC) (CAOV3_OVARY): 0.8029
Area under the curve (AUC) (CAPAN2_PANCREAS): 0.3724
PRISM AUC (CAPAN2_PANCREAS): 0.2599
Area under the curve (AUC) (CAS1_CENTRAL_NERVOUS_SYSTEM): 0.8726
Area under the curve (AUC) (CASKI_CERVIX): 0.7017
Area under the curve (AUC) (CBAGPN_BONE): 0.5843
Area under the curve (AUC) (CCFSTTG1_CENTRAL_NERVOUS_SYSTEM): 0.8445
Area under the curve (AUC) (CCK81_LARGE_INTESTINE): 0.8268
Area under the curve (AUC) (CCLP1_BILIARY_TRACT): 0.6816
Area under the curve (AUC) (CCSW1_BILIARY_TRACT): 0.6555
Area under the curve (AUC) (CFPAC1_PANCREAS): 0.5351
PRISM AUC (CFPAC1_PANCREAS): 0.2506
Area under the curve (AUC) (CH157MN_CENTRAL_NERVOUS_SYSTEM): 0.6397
Area under the curve (AUC) (CHAGOK1_LUNG): 0.489
Area under the curve (AUC) (CHL1_SKIN): 0.6244
Area under the curve (AUC) (CHLA06ATRT_SOFT_TISSUE): 0.5593
Area under the curve (AUC) (CHLA10_BONE): 0.7982
Area under the curve (AUC) (CHLA15_AUTONOMIC_GANGLIA): 0.6039
Area under the curve (AUC) (CHLA57_BONE): 0.7007
Area under the curve (AUC) (CHLA200_CENTRAL_NERVOUS_SYSTEM): 0.6544
Area under the curve (AUC) (CJM_SKIN): 0.5835
Area under the curve (AUC) (CL11_LARGE_INTESTINE): 0.4982
Area under the curve (AUC) (CMLT1_HAEMATOPOIETIC_AND_LYMPHOID_TISSUE): 0.6333
Area under the curve (AUC) (COGAR359_SOFT_TISSUE): 0.7818
Area under the curve (AUC) (COGE352_BONE): 0.9516
Area under the curve (AUC) (COGN278_AUTONOMIC_GANGLIA): 0.4846
Area under the curve (AUC) (COLO320_LARGE_INTESTINE): 0.6681
Area under the curve (AUC) (COLO668_LUNG): 0.6484
PRISM AUC (COLO668_LUNG): 0.815
Area under the curve (AUC) (COLO678_LARGE_INTESTINE): 0.7153
Area under the curve (AUC) (COLO679_SKIN): 0.858
Area under the curve (AUC) (COLO680N_OESOPHAGUS): 0.6858
Area under the curve (AUC) (COLO741_SKIN): 1
Area under the curve (AUC) (COLO783_SKIN): 0.8893
Area under the curve (AUC) (COLO792_SKIN): 0.7007
Area under the curve (AUC) (COLO800_SKIN): 0.7125
Area under the curve (AUC) (CORL23_LUNG): 0.5921
PRISM AUC (CORL23_LUNG): 0.1909
Area under the curve (AUC) (CORL88_LUNG): 0.5624
Area under the curve (AUC) (CORL105_LUNG): 0.7085
Area under the curve (AUC) (CORL279_LUNG): 0.7248
Area under the curve (AUC) (COV318_OVARY): 0.8633
Area under the curve (AUC) (COV362_OVARY): 0.7849
Area under the curve (AUC) (COV434_OVARY): 0.99
Area under the curve (AUC) (COV644_OVARY): 0.7771
Area under the curve (AUC) (CW2_LARGE_INTESTINE): 0.99
Area under the curve (AUC) (CW9019_SOFT_TISSUE): 0.6651
Area under the curve (AUC) (DANG_PANCREAS): 0.3955
PRISM AUC (DANG_PANCREAS): 0.2087
Area under the curve (AUC) (DAOY_CENTRAL_NERVOUS_SYSTEM): 0.7146
Area under the curve (AUC) (DBTRG05MG_CENTRAL_NERVOUS_SYSTEM): 0.9233
Area under the curve (AUC) (DEL_HAEMATOPOIETIC_AND_LYMPHOID_TISSUE): 0.7782
Area under the curve (AUC) (DETROIT562_UPPER_AERODIGESTIVE_TRACT): 0.4955
Area under the curve (AUC) (DKMG_CENTRAL_NERVOUS_SYSTEM): 0.9357
Area under the curve (AUC) (DL_SOFT_TISSUE): 0.5482
Area under the curve (AUC) (DMS53_LUNG): 0.9195
Area under the curve (AUC) (DMS79_LUNG): 0.9708
Area under the curve (AUC) (DMS273_LUNG): 0.8299
Area under the curve (AUC) [1]: 0.662
PRISM AUC [1]: 0.4904
Area under the curve (AUC) (DOHH2_HAEMATOPOIETIC_AND_LYMPHOID_TISSUE): 0.794
Area under the curve (AUC) (DOTC24510_CERVIX): 0.5479
Area under the curve (AUC) (DU145_PROSTATE): 0.7717
Area under the curve (AUC) (DU4475_BREAST): 0.7278
Area under the curve (AUC) (DV90_LUNG): 0.3742
PRISM AUC (DV90_LUNG): 0.1773
Area under the curve (AUC) (EB1_HAEMATOPOIETIC_AND_LYMPHOID_TISSUE): 0.7516
Area under the curve (AUC) (EBC1_LUNG): 0.4773
Area under the curve (AUC) (ECC2_BILIARY_TRACT): 0.751
Area under the curve (AUC) (ECC10_STOMACH): 0.6145
Area under the curve (AUC) (ECGI10_OESOPHAGUS): 0.5375
Area under the curve (AUC) (EFE184_ENDOMETRIUM): 0.7163
Area under the curve (AUC) (EFM19_BREAST): 0.9395
Area under the curve (AUC) (EFM192A_BREAST): 1
Area under the curve (AUC) (EFO21_OVARY): 0.6416
Area under the curve (AUC) (EFO27_OVARY): 0.6995
Area under the curve (AUC) (EGI1_BILIARY_TRACT): 0.5258
Area under the curve (AUC) (EKVX_LUNG): 0.7007
Area under the curve (AUC) (EM2_HAEMATOPOIETIC_AND_LYMPHOID_TISSUE): 0.5861
Area under the curve (AUC) (EMTOKA_ENDOMETRIUM): 0.6769
Area under the curve (AUC) (EN_ENDOMETRIUM): 0.882
Area under the curve (AUC) (ES2_OVARY): 0.9145
Area under the curve (AUC) (ESS1_ENDOMETRIUM): 0.5647
Area under the curve (AUC) (EW8_BONE): 0.6981
Area under the curve (AUC) (EWS502_BONE): 0.6483
Area under the curve (AUC) (FADU_UPPER_AERODIGESTIVE_TRACT): 0.6687
Area under the curve (AUC) (FLO1_OESOPHAGUS): 1
Area under the curve (AUC) (FTC133_THYROID): 0.5671
Area under the curve (AUC) (FTC238_THYROID): 0.9611
Area under the curve (AUC) (G292CLONEA141B1): 0.925
Area under the curve (AUC) (G292CLONEA141B1_BONE): 0.8311
Area under the curve (AUC) (G361_SKIN): 1
Area under the curve (AUC) (G401_SOFT_TISSUE): 0.9104
Area under the curve (AUC) (G402_SOFT_TISSUE): 0.9029
Area under the curve (AUC) (G415_BILIARY_TRACT): 0.596
Area under the curve (AUC) (GAMG_CENTRAL_NERVOUS_SYSTEM): 0.6539
Area under the curve (AUC) (GB1_CENTRAL_NERVOUS_SYSTEM): 1
Area under the curve (AUC) (GB2_BILIARY_TRACT): 0.5045
PRISM AUC (GP2D_LARGE_INTESTINE): 0.4036
PRISM AUC (GSU_STOMACH): 0.1903
PRISM AUC (HCC44_LUNG): 0.3549
PRISM AUC (HCC56_LARGE_INTESTINE): 0.1735
PRISM AUC (HCT15_LARGE_INTESTINE): 0.6069
PRISM AUC (HCT116_LARGE_INTESTINE): 0.4206
PRISM AUC (HEC1A_ENDOMETRIUM): 0.5452
PRISM AUC (HEC1B_ENDOMETRIUM): 0.557
PRISM AUC (HEYA8_OVARY): 0.3651
PRISM AUC (HMC18_BREAST): 0.1236
PRISM AUC (HPAC_PANCREAS): 0.2345
PRISM AUC (HPAFII_PANCREAS): 0.1832
AUC (PRISM viability) (HT29_LARGE_INTESTINE): 0.9401
AUC (PRISM viability) (HT55_LARGE_INTESTINE): 0.5483
AUC (PRISM viability) (HT144_SKIN): 0.8437
AUC (PRISM viability) (HT_HAEMATOPOIETIC_AND_LYMPHOID_TISSUE): 0.5864
PRISM AUC (HUCCT1_BILIARY_TRACT): 0.2016
